Measured values as given in patent publication US20260216362A1, “ANTI-BDCA2 ANTIBODY-DRUG CONJUGATE AND USE THEREOF” (DUALITY BIOLOGICS (SHANGHAI) CO., LTD., priority 2022, published 2026).

Experiments:
[1] = system: cynomolgus monkey whole blood stimulated with CpG-A; assay: IFN-α after in vitro CpG-A stimulation of whole blood of dosed cynomolgus monkeys; type: in vivo; conditions: 10 mg/kg i.v.; CpGA-stimulated whole blood
Protocol: (§1) Cytokine expression was detected by whole blood stimulation in vitro.
(§2) The cells were cultured at 37° C. for 18 h, and the supernatant was collected. The TNF-α and IFN-α concentration levels in the supernatant were detected using an ELISA kit.
(§3) IFN-α concentration assay was performed using a Mabtech Human IFN-α (pan specific) ELISA kit (Cat. No. 3425-1H-20). 50 μL of serially diluted cytokine standard was added to each standard well, 50 μL of test sample was added to each sample well, and 50 μL of PBS was added to each blank control well. The cells were incubated at 37° C. for 2 h. The plate was washed 3 times, the liquid in each well was removed, and 300 µL of 1× PBST buffer working solution was added to each well; and after 1 minute of residence, the liquid in each well was discarded. 100 μL of detection antibody working solution was added to each well, and the cells were incubated at 37° C. for 1 h. […] The reading at wavelength 450 nm was detected using a Molecular device spectra max plus384 instrument within 10 min after the reaction was stopped.
(§4) Evaluation criteria in FIGS. 12-13: the average expression level changes of IFNα/TNFα were evaluated after in vitro stimulation of the whole blood with CpGA at 200 μg/mL on days 0-33 after administration. […]

[2] = system: cynomolgus monkey whole blood stimulated with CpG-A; assay: TNF-α after in vitro CpG-A stimulation of whole blood of dosed cynomolgus monkeys; type: in vivo; conditions: 10 mg/kg i.v.; CpGA-stimulated whole blood
Protocol: as §1, §2
as §3, with “TNF-α” for “IFN-α”, “R&D Primate TNF-α DuoSet” for “Mabtech Human IFN-α (pan specific)”, “DY1070).” for “3425-1H-20).”, “times:” for “times,”, “μL” for “µL”
as §4

With “BIIB059: reference antibody specifically binding to BDCA2, sequence derived from U.S. Pat. No. 9,902,775B2; SEQ ID NO: 25 and 26 [reference compound]” the “IFN-α expression level compared to the blank control group” value [1] was “reduced” and the “TNFα expression level compared to the blank control group” value [2] was “no significant change”.
